Measurements taken from US20200113852A1, “METHODS OF PATIENT SELECTION AND TREATING TRXR- OR PRDX-OVEREXPRESSED CANCERS” (TRIACT THERAPEUTICS, INC., priority 2017, published 2020).

Columns and labels:
[1] = target: T1, human recombinant glutathione S-transferase pi (GSTP1) (Homo sapiens, UniProt P09211); experiment: In vitro Iniparib-glutathione conjugation; type: biochemical; conditions: 30 μM, 1 mM GSH
T1 construct: purchased Acris
Method: Online solid phase extraction (SPE) was performed using the fully automated Spark Holland Symbiosis™ (Emmen, The Netherlands) in eXtraction Liquid Chromatography (XLC) mode. The Symbiosis™ has previously been described in detail (18). HySphere™ C18 HD 7 μm SPE cartridges were used (Spark Holland). Each cartridge was initially conditioned with 2 ml methanol+0.5% formic acid (FA) and then equilibrated with 2 ml water+0.5% FA, both at flow-rates of 4 ml/min. Sample (25 μl) was aspirated and loaded onto the cartridge with 1 ml water+0.5% FA at a flow-rate of 1 ml/min. […] After elution, the right clamp was washed successively with 2 ml water+0.5% FA, 2 ml methanol+0.5% FA and 2 ml water+0.5% FA at 4 ml/min. […] The mobile phase composition was returned to starting conditions over 1 min and maintained during 6 min for column equilibration. The total run time was 27 min. Mass spectrometry was performed using the Thermo® TSQ Quantum Discovery Max in electrospray positive ionization mode (Thermo, US) with the following parameters: capillary voltage=4.0 kV, capillary temperature=300° C., sheath gas pressure=40, auxiliary gas pressure=5.

TrxR2 = target: T2, TrxR2 (Homo sapiens, UniProt Q9NNW7); experiment: Mass spectrometry of immunoprecipitated TrxR2 modified by Iniparib in HCT116 cells; type: cell-based
T2 construct: TrxR1 and TrxR2 were immunoprecipitated from octylglucoside cell extracts (12 mg proteins); endogenous in cells; host or cells: HCT116 (BSO-pretreated)
Method: After separation by SDS-PAGE under reducing conditions and PageBlue® protein staining (Thermo scientific), bands of interest were excised, reduced with DTT, alkylated with iodoacetamide and in-gel digested with trypsin (Promega), according to the method of Shevchenko et al. (24). Peptides were extracted with 50 mM ammonium bicarbonate and 50% acetonitrile in 0.2% formic acid and analyzed by Nano LC-MS/MS after partial evaporation in a speed-vac concentrator. LC-MS/MS experiments were performed on an NanoAcquity UPLC (Waters) coupled to a hybrid LTQ Orbitrap Velos mass spectrometer (Thermo Fisher Scientific) equipped with a nanoelectrospray source. Tryptic digests were loaded onto a nanoAcquity UPLC Trap column (Symmetry C18, 5 μm, 180 μm×20 mm, Waters) and washed with 0.2% FA at 20 μl/min for 5 min. Peptides were then eluted on a C18 reverse-phase nanoAcquity column (BEH130 C18, 1.7 μm, 75 μm×250 mm, Waters) with a linear gradient of 7-30% solvent B (H2O/CH3CN/HCOOH, 10:90:0.2, by vol.) for 85 min, 30-90% solvent B for 10 min, and 90% solvent B for 5 min, at a flow rate of 250 nL/min. The mass spectrometer was operated in the data-dependent mode to automatically switch between MS and MS/MS acquisition. Survey full scan MS spectra (m/z 300-1,600) were acquired in the Orbitrap with a resolution of 60,000 at m/z 400. The AGC was set to 1×10^6 with a maximum injection time of 100 ms. The most intense ions (up to 20) were then isolated for fragmentation in the LTQ linear ion trap with normalized collision energy of 28% at the default activation q of 0.25 with an AGC of 5×10^3 and a maximum injection time of 200 ms. The dynamic exclusion time window was set to 80 s. […] The exact parent mass is the 12C isotope ion mass of the most intense isotopic pattern detected on the high resolution Orbitrap MS parallel scan and included in the MS/MS selection window. […]

[2] = Phase II clinical trial GBM, toxicity and tolerability

T2 sequence (Q9NNW7 37-524): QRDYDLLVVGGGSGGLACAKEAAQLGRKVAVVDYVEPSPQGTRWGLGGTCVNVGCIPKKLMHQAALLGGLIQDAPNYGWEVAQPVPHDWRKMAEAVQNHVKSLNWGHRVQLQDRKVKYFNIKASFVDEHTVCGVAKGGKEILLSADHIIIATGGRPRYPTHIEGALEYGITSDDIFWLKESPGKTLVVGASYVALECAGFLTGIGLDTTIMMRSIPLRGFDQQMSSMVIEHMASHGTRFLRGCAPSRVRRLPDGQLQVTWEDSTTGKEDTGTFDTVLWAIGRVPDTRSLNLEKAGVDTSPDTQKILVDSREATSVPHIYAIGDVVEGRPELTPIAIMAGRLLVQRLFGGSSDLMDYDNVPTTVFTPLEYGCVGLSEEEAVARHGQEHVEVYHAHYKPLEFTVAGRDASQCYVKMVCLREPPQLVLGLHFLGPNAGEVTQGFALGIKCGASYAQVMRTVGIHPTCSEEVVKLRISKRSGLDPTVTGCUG
T1 sequence (P09211 whole entry): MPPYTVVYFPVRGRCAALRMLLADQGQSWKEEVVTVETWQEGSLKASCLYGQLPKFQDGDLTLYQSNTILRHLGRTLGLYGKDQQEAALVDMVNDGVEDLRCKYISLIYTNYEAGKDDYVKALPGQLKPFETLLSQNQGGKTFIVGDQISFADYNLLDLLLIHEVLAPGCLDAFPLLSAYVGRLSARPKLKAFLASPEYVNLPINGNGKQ

NC(=O)c1ccc(I)c([N+](=O)[O-])c1 [Iniparib, 4-iodo-3-nitrobenzamide]
reaction with GSH ([1]; absence of GSTP1): did not react | conversion of Iniparib to Iniparib-GS ([1]; recombinant GSTP1 added): complete conversion | TrxR2 with one Iniparib adduct on Sec residue (TrxR2; 1 h): 5% | TrxR2 with one Iniparib adduct on Sec residue (TrxR2; 4 h): 12% | additional TrxR2 peptide modified on a cysteine residue (TrxR2; 4 h): < 1% | Acute kidney injury ([2]; Grade 3): 1 (1) N (%) | Anemia ([2]; Grade 3): 2 (2) N (%) | Atrial fibrillation ([2]; Grade 3): 1 (1) N (%) | Bronchial infection ([2]; Grade 3): 1 (1) N (%) | Cognitive disturbance ([2]; Grade 3): 1 (1) N (%) | Confusion ([2]; Grade 3): 1 (1) N (%) | Dehydration ([2]; Grade 3): 1 (1) N (%) | Dizziness ([2]; Grade 3): 1 (1) N (%) | Dysphasia ([2]; Grade 3): 1 (1) N (%) | Fatigue ([2]; Grade 3): 4 (5) N (%) | Generalized muscle weakness ([2]; Grade 3): 2 (2) N (%) | Headache ([2]; Grade 3): 1 (1) N (%) | Hyperkalemia ([2]; Grade 3): 1 (1) N (%) | Hypokalemia ([2]; Grade 3): 1 (1) N (%) | Hypotension ([2]; Grade 3): 1 (1) N (%) | Hypoxia ([2]; Grade 3): 1 (1) N (%) | Lymphocyte count decreased ([2]; Grade 3): 4 (5) N (%) | Nausea ([2]; Grade 3): 2 (2) N (%) | Neutrophil Count Decreased ([2]; Grade 3): 3 (4) N (%) | Platelet Count Decreased ([2]; Grade 3): 4 (5) N (%) | Rash maculo-papular ([2]; Grade 3): 3 (4) N (%) | Skin and subcutaneous tissue disorders ([2]; Grade 3): 1 (1) N (%) | Vomiting ([2]; Grade 3): 1 (1) N (%) | White Blood Cell Decreased ([2]; Grade 3): 5 (6) N (%) | Alanine aminotransferase increased ([2]; Grade 4): 1 (1) N (%) | Aspartate aminotransferase increased ([2]; Grade 4): 1 (1) N (%) | Flushing ([2]; Grade 4): 1 (1) N (%) | Hypertension ([2]; Grade 4): 1 (1) N (%) | Neutrophil Count Decreased ([2]; Grade 4): 5 (6) N (%) | Platelet Count Decreased ([2]; Grade 4): 11 (13) N (%) | White Blood Cell Decreased ([2]; Grade 4): 3 (4) N (%) | Acute kidney injury ([2]; Total): 1 (1) N (%) | Alanine aminotransferase increased ([2]; Total): 1 (1) N (%) | Anemia ([2]; Total): 2 (2) N (%) | Aspartate aminotransferase increased ([2]; Total): 1 (1) N (%) | Atrial fibrillation ([2]; Total): 1 (1) N (%) | Bronchial infection ([2]; Total): 1 (1) N (%) | Cognitive disturbance ([2]; Total): 1 (1) N (%) | Confusion ([2]; Total): 1 (1) N (%) | Dehydration ([2]; Total): 1 (1) N (%) | Dizziness ([2]; Total): 1 (1) N (%) | Dysphasia ([2]; Total): 1 (1) N (%) | Fatigue ([2]; Total): 4 (5) N (%) | Flushing ([2]; Total): 1 (1) N (%) | Generalized muscle weakness ([2]; Total): 2 (2) N (%) | Headache ([2]; Total): 1 (1) N (%) | Hyperkalemia ([2]; Total): 1 (1) N (%) | Hypertension ([2]; Total): 1 (1) N (%) | Hypokalemia ([2]; Total): 1 (1) N (%) | Hypotension ([2]; Total): 1 (1) N (%) | Hypoxia ([2]; Total): 1 (1) N (%) | Lymphocyte count decreased ([2]; Total): 4 (5) N (%) | Nausea ([2]; Total): 2 (2) N (%) | Neutrophil Count Decreased ([2]; Total): 8 (10) N (%) | Platelet Count Decreased ([2]; Total): 15 (18) N (%) | Rash maculo-papular ([2]; Total): 3 (4) N (%) | Skin and subcutaneous tissue disorders ([2]; Total): 1 (1) N (%) | Vomiting ([2]; Total): 1 (1) N (%) | White Blood Cell Decreased ([2]; Total): 8 (10) N (%) | well tolerated dose ([2]; with adjuvant TMZ): 17.2 mg/kg weekly | well tolerated dose ([2]; with radiation and TMZ): 16 mg/kg weekly
